According to article PMC3145798, “The Extracytoplasmic Domain of the Mycobacterium tuberculosis Ser/Thr Kinase PknB Binds Specific Muropeptides and Is Required for PknB Localization” (PLoS Pathogens, 2011):
“Also recorded” adds a separate entry of the source. *1 amine or outer side, *2 acyl side, *3 side chain or, on linkers, in order; H or OH if unused. Where a SMILES comes first, the peptide text is derived from it. [ ]: non-standard residue; d: D form. Mur = C[C@@H](O[C@H]1[C@H](O)[C@@H](CO)OC(O)[C@@H]1N[*:1])C(=O)[*:2]; d(isoGln) = NC(=O)[C@@H](CCC(=O)[*:2])N[*:1]

Experiments:
[1] = biological target: T1, extracytoplasmic domain of M. tuberculosis PknB (ED-PknB, PASTA domains) (Mycobacterium tuberculosis, UniProt P9WI81); assay: Surface plasmon resonance (Biacore) binding of synthetic muropeptides to immobilized ED-PknB; set-up: ka1: unit not given here; conditions: for decrease in binding compared to compound 6a: ratio of affinities relative to 6a; for ka1 / ka2 / kd1 / kd2 / Kd: two-state binding model; for ka1 / ka2 / kd1 / kd2: 25°C
T1 construct: GST (N, cleaved yes); made in house; host or cells: Escherichia coli BL21 (DE3)
T1 sequence (P9WI81 354-626): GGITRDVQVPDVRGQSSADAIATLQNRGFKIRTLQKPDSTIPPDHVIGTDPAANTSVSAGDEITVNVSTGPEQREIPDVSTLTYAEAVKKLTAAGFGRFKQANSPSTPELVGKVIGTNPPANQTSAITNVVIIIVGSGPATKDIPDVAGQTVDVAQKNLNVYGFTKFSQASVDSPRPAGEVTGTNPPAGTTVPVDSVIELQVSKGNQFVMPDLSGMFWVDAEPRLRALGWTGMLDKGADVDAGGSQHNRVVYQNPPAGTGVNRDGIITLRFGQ

[2] = tested on: dormant M. tuberculosis H37Rv cells; assay: Dormancy and resuscitation assay (most probable number); format: cell-based, Mycobacterium tuberculosis H37Rv; conditions: for Fold increase in viable cell number relative to cultures grown in Sauton's medium without additive: muropeptide at 10 times the KD of 6c, spent medium 50%, MPN after 2 months at 37°C; for increase in viability relative to cells in fresh medium alone: two independent experiments (6 or 9 months hypoxic), experiment not assigned, most probable number analysis
[3] = SPR Biacore T100, ED-PknB on CM-5 chip (5,000 RU), HBS-EP pH 7.4, 25°C, Table 1 and text
[4] = Table S1, SPR, ED-PknB on CM-5 chip (5,000 RU)
[5] = Experiment 1: 6 month old dormant culture
[6] = Experiment 2: 9 month old dormant culture

Row | Compound | ka1 ([1]; Table S1, SPR) | ka2 ([1]; Table S1, SPR) | kd1 ([1]; Table S1, SPR) | kd2 ([1]; Table S1, SPR) | Kd [1, 3] [µM] | Kd [1, 4] [µM] | binding to ED-PknB in words ([1]; SPR) | further results
1 | CC(=O)N[C@H]1C(O)O[C@H](CO)[C@@H](O)[C@@H]1O[C@H](C)C(=O)N[C@@H](C)C(=O)N[C@H](CCC(=O)N[C@@H](CCC[C@@H](N)C(=O)O)C(=O)N[C@H](C)C(=O)N[C@H](C)C(N)=O)C(N)=O (some centres unmarked) [MPP-DAP (amide/acid) 7] | 4316 | 1.4 10^-3 s^-1 | 161.5 10^-3 s^-1 | 2.8 10^-3 s^-1 | – | – | – | decrease in binding compared to compound 6a ([1]; SPR): about two-fold
2 | CC(=O)N[C@H]1C(O)O[C@H](CO)[C@@H](O)[C@@H]1O[C@H](C)C(=O)N[C@@H](C)C(=O)N[C@H](CCC(=O)N[C@@H](CCCCN)C(=O)N[C@H](C)C(=O)N[C@H](C)C(N)=O)C(N)=O (stereo partly drawn) [MPP-Lys (D-Ala) 3a] (Ac-[Mur]A[d(isoGln)]K[dA][dA]-NH2) | – | – | – | – | > 500 | > 500 | – | –
3 | CC(=O)N[C@H]1C(O)O[C@H](CO)[C@@H](O)[C@@H]1O[C@H](C)C(=O)N[C@@H](C)C(=O)N[C@H](CCC(=O)N[C@@H](CCCCN)C(=O)N[C@H](C)C(=O)NCC(N)=O)C(N)=O (some centres unmarked) [MPP-Lys (Gly) 3b] (Ac-[Mur]A[d(isoGln)]K[dA]G-NH2) | – | – | – | – | > 500 | > 500 | – | Fold increase in viable cell number relative to cultures grown in Sauton's medium without additive [2, 5]: 0.9 fold; Fold increase in viable cell number relative to cultures grown in Sauton's medium without additive [2, 6]: 1 fold; increase in viability relative to cells in fresh medium alone [2]: No increase in viability
4 | CC(=O)N[C@H]1C(O)O[C@H](CO)[C@@H](O)[C@@H]1O[C@H](C)C(=O)N[C@@H](C)C(=O)N[C@H](CCC(=O)N[C@@H](CCC[C@@H](N)C(=O)O)C(N)=O)C(N)=O (some centres unmarked) [MTP-DAP (amide/acid) 5] | 5577 | 1.64 10^-3 s^-1 | 172.9 10^-3 s^-1 | 3.86 10^-3 s^-1 | – | – | – | –
5 | CC(=O)N[C@H]1C(O)O[C@H](CO)[C@@H](O)[C@@H]1O[C@H](C)C(=O)N[C@@H](C)C(=O)N[C@H](CCC(=O)N[C@@H](CCCCN)C(N)=O)C(N)=O (some centres unmarked) [MTP-Lys (amide) 1] | – | – | – | – | > 500 | > 500 | – | –
6 | CC(=O)N[C@H]1C(O)O[C@H](CO)[C@@H](O)[C@@H]1O[C@H](C)C(=O)N[C@@H](C)C(=O)N[C@H](CCC(=O)N[C@@H](CCC[C@@H](N)C(=O)O)C(=O)N[C@H](C)C(N)=O)C(=O)O (some centres unmarked) [MTrP-DAP (acid/acid) 6d] | 1931 | 2.0 10^-3 s^-1 | 168.7 10^-3 s^-1 | 3.2 10^-3 s^-1 | – | – | – | decrease in binding compared to compound 6a ([1]; SPR): four-fold
7 | CC(=O)N[C@H]1C(O)O[C@H](CO)[C@@H](O)[C@@H]1O[C@H](C)C(=O)N[C@@H](C)C(=O)N[C@H](CCC(=O)N[C@@H](CCCC(N)C(N)=O)C(=O)N[C@H](C)C(N)=O)C(=O)O (some centres unmarked) [MTrP-DAP (acid/amide) 6b] | – | – | – | – | > 100 | > 100 | did not show measurable binding | –
8 | CC(=O)N[C@H]1C(O)O[C@H](CO)[C@@H](O)[C@@H]1O[C@H](C)C(=O)N[C@@H](C)C(=O)N[C@H](CCC(=O)N[C@@H](CCC[C@@H](N)C(=O)O)C(=O)N[C@H](C)C(N)=O)C(N)=O (some centres unmarked) [MTrP-DAP (amide/acid) 6a] | 3451 | 1.83 10^-3 s^-1 | 100.7 10^-3 s^-1 | 1.4 10^-3 s^-1 | – | – | exhibited the highest affinity | –
9 | CC(=O)N[C@H]1C(O)O[C@H](CO)[C@@H](O)[C@@H]1O[C@H](C)C(=O)N[C@@H](C)C(=O)N[C@H](CCC(=O)N[C@@H](CCC[C@@H](N)C(N)=O)C(=O)N[C@H](C)C(N)=O)C(N)=O (some centres unmarked) [MTrP-DAP (amide/amide) 6c] | 342.8 | 41.5 10^-3 s^-1 | 57.8 10^-3 s^-1 | 4.02 10^-3 s^-1 | – | 14.9 | – | Fold increase in viable cell number relative to cultures grown in Sauton's medium without additive [2, 5]: 9 fold; Fold increase in viable cell number relative to cultures grown in Sauton's medium without additive [2, 6]: 3 fold; increase in viability relative to cells in fresh medium alone [2]: three; also recorded: nine-fold
10 | CC(=O)N[C@H](CCC[C@H](NC(=O)CC[C@@H](NC(=O)[C@H](C)NC(=O)[C@@H](C)O[C@H]1[C@H](O)[C@@H](CO)OC(O)[C@@H]1NC(C)=O)C(N)=O)C(=O)N[C@H](C)C(N)=O)C(=O)O (some centres unmarked) [MTrP-DAP(amide/acid)NHAc 6e] | 354.2 | 6.6 10^-3 s^-1 | 106 10^-3 s^-1 | 2.2 10^-3 s^-1 | – | – | – | decrease in binding compared to compound 6a ([1]; SPR): six-fold
11 | CC(=O)NCCCC[C@H](NC(=O)CC[C@@H](NC(=O)[C@H](C)NC(=O)[C@@H](C)O[C@H]1[C@H](O)[C@@H](CO)OC(O)[C@@H]1NC(C)=O)C(N)=O)C(=O)N[C@H](C)C(N)=O (some centres unmarked) [MTrP-Lys (amide) NHAc 2b] | – | – | – | – | > 500 | > 500 | – | –
12 | C[C@H](N)C(=O)N[C@H](CCC(=O)N[C@@H](CCCCN)C(=O)N[C@H](C)C(=O)N[C@H](C)C(N)=O)C(N)=O [Peptide 4 (amide)] (H-A[d(isoGln)]K[dA][dA]-NH2; N-terminus assumed) | – | – | – | – | – | – | Neither compound showed significant interaction | –
13 | CC(=O)N[C@@H](C)C(=O)N[C@H](CCC(=O)N[C@@H](CCCC(N)C(=O)O)C(=O)N[C@H](C)C(=O)N[C@H](C)C(N)=O)C(N)=O (some centres unmarked) [Peptide 8 (amide/amide)] | – | – | – | – | > 500 | > 500 | Neither compound showed significant interaction | –
